Laboratory results: publication PMC11601558, “SLC6A19 inhibition facilitates urinary neutral amino acid excretion and lowers plasma phenylalanine” (JCI Insight, 2024)
Where “and” joins values, the source holds several entries; their conditions need not be identical. Equal values may be shown once.

Key:
SLC6A19 = target: T1, SLC6A19 (Homo sapiens, UniProt Q695T7); assay: SLC6A19 glutamine transport assay in human postmortem intestinal epithelial cells; assay type: cell-based; settings: endogenous SLC6A19; geometric mean n = 5, 3 donors; 95% CI 33–197 nM
T1 construct: human intestinal epithelial cells with endogenous expression levels of SLC6A19; tissue AnaBios; host or cells: epithelial cells scraped from distal jejunum of human postmortem intestine (3 male donors)
Description: Human postmortem intestines from 3 male donors (ages 23–36 years) were provided by AnaBios. Following trimming of excess fat, the distal part of the jejunum was dissected into tissue sections of approximately 100 cm^2 and further processed on ice. These sections contained an estimated approximately 250 million epithelial cells ([28], [29]). Epithelial cells were scraped off each tissue section with a tissue scraper and collected in ice-cold Hank’s balanced salt solution (HBSS). Following centrifuging for 5 min at 300g at 4°C, the supernatant was aspirated and the cell pellet was washed 3–6 times by resuspending in ice-cold HBSS (Thermo Fisher Scientific). […]
Human postmortem epithelial cells isolated from small intestine were centrifuged for 5 minutes at 300g and 4°C and resuspended in Krebs buffer (140 mM sodium chloride, 4.7 mM KCl, 2.5 mM CaCl2, 1.2 mM MgCl2, 11 mM HEPES, 10 mM glucose, pH 7.4) at a density of 7.5 × 10^6 cells/mL. […] The uptake of 2,3,4-^3H–labeled L-glutamine was measured on a Microbeta^2 microplate counter (PerkinElmer).
IC50 values for transport inhibition in cells overexpressing SLC6A19 and TMEM27 were calculated using a 4-parameter logistic regression in Collaborative Drug Discovery (CDD). […] The IC50 values of individual experiments were calculated with a 3- or 4-parameter logistic regression using GraphPad Prism 9. […]

Pah^enu2 mice = assay: Plasma Phe in Pah^enu2 mice on defined amino acid diets (0.75%, 0.45%, 0.225% Phe); assay type: in vivo, mouse; set-up: plasma Phe: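 plasma Phe concentration in µM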; settings: for mean plasma Phe lower than vehicle / plasma Phe, mean ± SD: 200 mg/kg, 3 hours after dose; for plasma Phe: Fig 3e, Pah^enu2 mice on defined diet, individual animals
Description: To modulate baseline plasma Phe levels, 8–13-week-old male Pah^enu2 mice were maintained on isocaloric amino acid–defined diets with either 7.5 g/kg (0.75%, Teklad T.2018.15), 4.5 g/kg (0.45%, Teklad custom formulation), or 2.25 g/kg (0.225%, Teklad custom formulation) L-Phe for 2 weeks before a single dose administration of 200 mg/kg JN-170 or vehicle. Animals had unrestricted access to food and water throughout the study. Serial plasma samples were taken predose as well as 1, 3, 8, 24 and 48 hours after the dose. For all studies, mice were dosed at 7:00 a.m. ± 30 minutes to synchronize with circadian rhythm.
Plasma sample analyses were carried out by liquid chromatography tandem mass spectrometry (LC-MS/MS). Plasma samples were mixed 1:1 with carbamazepine or ^13C6-Phe as internal standards for JN-170 and Phe, respectively. Plasma proteins were precipitated by adding 4 volumes of acetonitrile (ACN) and 0.1% formic acid (FA) followed by centrifugation for 5 minutes at 2,100g. Supernatants were diluted 1:1 in ACN and 0.1% FA. For JN-170, a Waters HSS T3 reversed phase column was used for separation using a binary gradient of 0.1% FA in water (mobile phase A) to 0.1% in ACN (mobile phase B). At a flow rate of 0.8 mL/min, the mobile phase gradient increased from an initial 25% phase B to 95% phase B over 30 seconds. After, 1.5 minutes, the gradient was returned to 25% mobile phase B. For detection of Phe, an Acquity UPLC ethylene bridged hybrid (BEH) amide column was used, with a binary gradient of 10 mM ammonium acetate in 95:5:1 H2O:ACN:FA (mobile phase A) to 10 mM ammonium acetate in 95:5:1 ACN:H2O:FA (mobile phase B). At a flow rate of 0.5 mL/min, the mobile phase gradient changed from an initial 100% phase B to 50% phase B over 2.1 minutes. It was returned to 100% phase B after 4 minutes. Analytes were detected using a Sciex API-5500 in multiple reaction monitoring mode using an electrospray ionization source in the positive ion mode with the following ion transitions: m/z 435.2/84.1 (JN-170), 237.1/194.1 (carbamazepine), 166.1/120.1 (Phe), 172.2/126.2 for (^13C6-Phe). Analyte concentrations were calculated with a 1/×^2 linear regression over a concentration range of 1 or 2 to 5,000 ng/mL for JN-170 and 0.05–100 ng/mL for Phe.

T1 sequence (Q695T7 whole entry): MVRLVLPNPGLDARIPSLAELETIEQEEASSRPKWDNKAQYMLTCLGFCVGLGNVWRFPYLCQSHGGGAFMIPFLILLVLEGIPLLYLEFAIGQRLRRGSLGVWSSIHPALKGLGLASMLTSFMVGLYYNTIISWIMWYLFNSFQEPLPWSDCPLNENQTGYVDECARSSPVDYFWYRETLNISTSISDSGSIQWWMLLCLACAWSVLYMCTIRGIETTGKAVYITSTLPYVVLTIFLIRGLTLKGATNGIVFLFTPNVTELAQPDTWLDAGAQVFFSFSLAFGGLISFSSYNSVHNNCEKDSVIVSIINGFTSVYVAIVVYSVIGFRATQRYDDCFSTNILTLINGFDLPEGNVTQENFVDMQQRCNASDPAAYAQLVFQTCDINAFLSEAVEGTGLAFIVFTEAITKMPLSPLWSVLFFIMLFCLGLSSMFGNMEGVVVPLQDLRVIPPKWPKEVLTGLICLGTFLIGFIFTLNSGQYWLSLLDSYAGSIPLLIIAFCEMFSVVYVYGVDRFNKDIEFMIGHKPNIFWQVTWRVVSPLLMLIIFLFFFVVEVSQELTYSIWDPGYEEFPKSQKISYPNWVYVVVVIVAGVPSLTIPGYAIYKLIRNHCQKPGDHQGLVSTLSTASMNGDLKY
T1 sequence (Q9BYF1 18-805 partner): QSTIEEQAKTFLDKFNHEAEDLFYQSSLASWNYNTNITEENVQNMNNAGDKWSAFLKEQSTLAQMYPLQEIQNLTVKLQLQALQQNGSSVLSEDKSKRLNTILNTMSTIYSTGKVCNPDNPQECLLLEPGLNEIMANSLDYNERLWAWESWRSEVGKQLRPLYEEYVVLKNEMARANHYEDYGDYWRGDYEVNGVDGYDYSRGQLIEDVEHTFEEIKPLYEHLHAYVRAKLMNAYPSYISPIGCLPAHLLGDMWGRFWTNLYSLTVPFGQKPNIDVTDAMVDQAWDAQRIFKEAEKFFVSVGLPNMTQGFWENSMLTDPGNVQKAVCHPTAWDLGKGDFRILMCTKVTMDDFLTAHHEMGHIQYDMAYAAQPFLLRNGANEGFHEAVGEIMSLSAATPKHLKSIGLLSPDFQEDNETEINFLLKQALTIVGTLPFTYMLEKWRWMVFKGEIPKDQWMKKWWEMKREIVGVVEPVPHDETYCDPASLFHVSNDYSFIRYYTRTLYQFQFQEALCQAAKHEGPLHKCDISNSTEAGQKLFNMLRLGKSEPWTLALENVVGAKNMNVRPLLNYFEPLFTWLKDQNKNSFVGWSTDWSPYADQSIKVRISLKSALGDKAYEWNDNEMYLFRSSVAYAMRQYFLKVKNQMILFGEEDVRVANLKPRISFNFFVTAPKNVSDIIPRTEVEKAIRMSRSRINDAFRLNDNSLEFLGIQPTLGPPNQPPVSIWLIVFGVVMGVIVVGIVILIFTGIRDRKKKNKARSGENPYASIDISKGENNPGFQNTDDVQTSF

SMILES | IC50 (SLC6A19) | mean plasma Phe lower than vehicle (Pah^enu2 mice; 0.225% Phe diet) | plasma Phe, mean ± SD (Pah^enu2 mice; 0.225% Phe diet) | mean plasma Phe lower than vehicle (Pah^enu2 mice; 0.45% Phe diet) | plasma Phe, mean ± SD (Pah^enu2 mice; 0.45% Phe diet) | mean plasma Phe lower than vehicle (Pah^enu2 mice; 0.75% Phe diet) | plasma Phe, mean ± SD (Pah^enu2 mice; 0.75% Phe diet) | plasma Phe (Pah^enu2 mice; time 0 h) | plasma Phe (Pah^enu2 mice; time 1 h) | plasma Phe (Pah^enu2 mice; time 3 h) | plasma Phe (Pah^enu2 mice; time 8 h) | plasma Phe (Pah^enu2 mice; time 24 h)
NC(=O)N1CCC[C@@H](N(C(=O)NCc2ccc(OC(F)(F)F)cc2F)C2CC2)C1 [JNT-517] | 81 nM | – | – | – | – | – | – | – | – | – | – | –
N#Cc1ccc(-c2noc([C@]3(C(F)(F)F)CCN(C(=O)NCCC4(N)CC4)C3)n2)cc1 [JN-170] | – | 47% | 309 ± 108 µM | 61% | 416 ± 117 µM | 59% | 621 ± 141 µM | 2027 and 2042 and 2474 and 2301 and 2768 and 2728 and 2723 and 1767 and 1191 and 962 and 924 and 848 and 1013 and 971 and 1061 and 1569 and 1364 and 1314 | 884 and 990 and 803 and 886 and 865 and 914 and 675 and 1252 and 589 and 1292 and 1010 and 927 and 813 and 907 and 727 and 787 and 898 and 1296 and 942 and 978 | 973 and 455 and 892 and 697 and 736 and 559 and 671 and 509 and 763 and 495 and 635 and 669 and 535 and 654 and 529 and 586 and 485 and 516 and 441 and 769 and 511 and 574 | 938 and 505 and 720 and 502 and 600 and 578 and 665 and 577 and 945 and 657 and 745 and 672 and 637 and 621 and 611 and 518 and 376 and 392 and 476 (2×) and 629 | 1767 and 1553 and 1370 and 1402 and 1592 and 597 and 1045 and 1827 and 1448 and 1043 and 988 and 1535 and 1388 and 1336 and 1203 and 1339 and 1578 and 871 and 1063
